From patent US20240295560A1, “PANCREATIC CANCER DIAGNOSIS ASSISTANCE METHOD AND PHARMACEUTICAL COMPOUND FOR TREATING PANCREATIC CANCER” (TOKYO METROPOLITAN GERIATRIC HOSPITAL AND INSTITUTE OF …, priority 2020, published 2024)

Experiments:
[1] = test system: GM2 expression in MIA PaCa-2 cells; assay: GM2 expression and cell clusters in three-dimensional culture with AMP-dNM or MAP kinase inhibitor; type: cell-based
Method: MIA PaCa-2 cells were cultured on ultra-low attachment plates at a concentration of 1.0×10^4 cells/well (24-well plate: Corning) for 7 days. Cell clusters were obtained. Therefore, the number of GM2-positive cells increased in three-dimensional culture. In this example, the effects of AMP-dNM or MAP kinase inhibitor on GM2 expression were examined. Under the same conditions as in Example 5, MIA PaCa-2 cells were three-dimensionally cultured, and the expression of GM2 was measured by adding AMP-dNM (10 μM) which is an inhibitor of glycolipid synthesis, or PD0325901 (1 μM) which is a MAP kinase inhibitor.

[2] = test system: MIA PaCa-2 cells (GM2-positive vs GM2-negative); assay: sensitivity of GM2-expressing cells to anticancer drugs, proliferation rate by ATP assay; type: cell-based; conditions: drug at 10 μM or 100 μM, incubated 3 days, ATP assay (FIG. 6)
Method: In this example, the sensitivity of GM2-expressing cells to anticancer drugs (gemcitabine, fluorouracil [5-FU], and Abraxane) were examined.
MIA PaCa-2 cells (3.0×10^3 cells/well) were seeded in 96-well plates. After 1 day, each anticancer drug was added thereto at a concentration of 10 μM or 100 μM. The cells were incubated for 3 days, and the proliferation rate of the cells was measured by ATP assay.

[3] = AMP-dNM 10 μM, three-dimensional culture of MIA PaCa-2 cells (FIG. 8(B))

SMILES: OC[C@@H]1[C@@H](O)[C@H](O)[C@@H](O)CN1CCCCCOCC12CC3CC(CC(C3)C1)C2 [AMP-dNM, N-(5′-adamantane-1′-yl-methoxy)-pentyl-1-deoxynojirimycin]
- GM2 expression ([1]; AMP-dNM 10 μM, three-dimensional culture of MIA PaCa-2 cells (FIG. 8(A))): decreased
- microvilli in the cell clusters [1, 3]: hardly observed
- vacuoles in the cell clusters [1, 3]: conspicuously observed

SMILES: O=C(NOC[C@H](O)CO)c1ccc(F)c(F)c1Nc1ccc(I)cc1F [PD0325901]
- GM2 expression ([1]; PD0325901 1 μM, three-dimensional culture of MIA PaCa-2 cells (FIG. 8(C))): decreased
- size of cell clusters ([1]; PD0325901 1 μM, three-dimensional culture of MIA PaCa-2 cells (FIG. 8(D))): clearly reduced

SMILES: O=c1[nH]cc(F)c(=O)[nH]1 [fluorouracil [5-FU], fluorouracil]
- proliferation rate of GM2-positive cells compared with GM2-negative cells [2]: effective against GM2-positive cells

SMILES: Nc1ccn([C@@H]2O[C@H](CO)[C@@H](O)C2(F)F)c(=O)n1 [gemcitabine]
- proliferation rate of GM2-positive cells compared with GM2-negative cells [2]: effective against GM2-positive cells
